System: p53, Mdm2, p21, PCNA, Bax and Bcl-2
Assay: Gene expression assay (semi-quantitative PCR, Western blot) in rat liver, progression stage
Format: in vivo
Protocol: RNA was extracted from 300 μg of rat liver and was measured as described in foregoing examples Three micrograms of total RNA, 1 μl of an oligo dT primer and certain volume of RNase-Free H2O were mixed into a total volume of 12 μl. The mixture was incubated at 70° C. for 10 minutes and immediately chilled on ice. Four microliters of 5× First Stand Buffer, 2 μl of 0.1M DTT, 1 μl of 10 mM dNTP mix, and 1 μl of SuperScript II were added to each tube and mixed. The tubes were incubated at 42° C. for 50 minutes followed by 70° C. for 15 minutes before chilling on ice. The cDNA was then ready for PCR amplification.
The PCR reactions were performed in a final volume of 20 μl in a Gene Amp® PCR system. The PCR reaction mix contained 1 μl of cDNA synthesized previously, 2 μl 10×PCR Buffer, 0.4 μl 10 mM dNTP mix, 1.2 μl 25 mM MgCl2, 1 μl 10 mM primer mix, 0.2 μl recombinant Taq polymerase, and 14.2 μl autoclaved ddH2O.
The intensity of the PCR products was analyzed by the software Image J. The band intensity of the β-actin gene was measured as an internal control. The ratio of the band intensities of the target gene to the β-actin gene was used to compare the mRNA level of each gene between different treatment groups.
Three hundred micrograms of each liver sample were homogenized in the Solution C at 1 g/ml using a glass homogenizer on ice. The homogenate was transferred to a microcentrifuge tube and centrifuged at 13,000 rpm for 20 minutes. The supernatant was collected and equal volume of 2× sample loading dye was added to each sample. The samples were stored at −20° C. The protein was used for immunodetection of the expression level of Bax, Bcl-2, PCNA and p21.
Three hundreds micrograms of each liver sample were homogenized in Solution A at 1 g/ml using the glass homogenizer on ice. The homogenate was transferred into a microcentrifuge tube and centrifuged at 3,000 rpm for 5 minutes to spin down the unbroken tissue. The supernatant was collected and incubated on ice for 5 minutes and then centrifuged at 5,000 rpm for 5 minutes. The supernatant was discarded and the pellet was lysed by 100 μl Solution B. The lysing process lasted for 20 minutes on ice. After incubation, the solution was centrifuged at 12,000 rpm for 15 seconds to spin down the cell debris. The supernatant was collected and equal volume of 2× sample loading dye was added to each sample. The samples were ready for immunodetection of the expression level of p53 and mdm2.
Each of the transferred membrane blots was incubated in 4 ml TBST with 5% non-fat milk powder and primary antibody overnight at 4° C. After incubation, the membrane was washed in TBST buffer for 10 minutes for 3 times. Each transferred membrane blot was then incubated in 4 ml TBST and 5% non-fat milk powder with secondary antibody for 1 hour at room temperature. After incubation, the membrane was washed in TBST buffer for 10 minutes for 3 times. The membrane was ready for ECL reaction.
The films that captured the signal from the ECL reaction were scanned into the computer and analyzed by the software Image J to read the density of darkness.
Rats in the negative control group received weekly intraperitoneal (i.p.) injection of DMSO for the first 2 weeks and then Corn Oil for 28 weeks. Rats in the positive control and SIN-treatment groups both received weekly intraperitoneal (i.p.) injection of DEN for the first 2 weeks and then CCl4 for 28 weeks. Two weeks of fasting were inserted between DEN treatment and CCl4 treatment. Starting from 33rd week, negative and positive control groups received oral administration of water once a day. Sinigrin with dosage 15 mg/kg was administered orally to the SIN-treatment group daily for 24 weeks. After treatment, the rats were killed. Blood and liver were collected and processed as described in the foregoing examples.
The gene expression assays were performed as described in the foregoing examples. […]

For `C=CC/C(=N/OS(=O)(=O)[O-])S[C@@H]1OC(CO)[C@@H](O)C(O)C1O.[K+]` (stereo partly drawn) [SIN, sinigrin], the “Mdm2 mRNA expression” value (RT-PCR) was “reduced back to levels near or even lower than the negative control”, the “p53 mRNA expression” value (RT-PCR) was “reduced back to levels near or even lower than the negative control” and the “Bax protein expression (decreased in positive group)” value (Western blot) was “reversed”. For the same compound, the “Bcl-2 protein expression (increased in positive group)” value (Western blot) was “reversed”, the “Mdm2 protein expression (increase in positive control)” value (Western blot) was “partially reversed” and the “PCNA protein expression (increased in positive group)” value (Western blot) was “reversed”. For the same compound, the p21 protein expression (Western blot) was “restored its expression to a level substantially higher than the negative control”, the “total p53 protein level” value (Western blot) was “significantly increased” and the “wild type p53 protein level” value (Western blot) was “restored its expression to a level even higher than that of the negative control”.

— patent US20100120703A1, “COMPOSITIONS AND METHODS FOR TREATING CANCER” (priority 2007, published 2010)
